In US20260091020A1, “TREATMENT OF ACUTE CANNABINOID OVERDOSE” (Anebulo Pharmaceuticals, Inc., priority 2022, published 2026):
pEC50, pIC50: −log10 of the molar value.

Experiments:
Assay type in all cases: cell-based
[1] = molecular target: T1, CB2 [CNR2] (Homo sapiens, UniProt P34972); experiment: PathHunter GPCR Biosensor cAMP assay, CNR2 antagonist mode; conditions: Gi cAMP, 25 μM Forskolin; EC80 0.0048 μM CP55940
Experimental: (§1) Compounds 2 and 3 were evaluated for activity against CB1 [CNR1] and CB2 [CNR2], both as agonists or as antagonists using the PathHunter GPCR Biosensor (Eurofins Discovery X, Fremont CA). For agonist assays, data was normalized to the maximal and minimal response observed in the presence of control ligand and vehicle. For antagonist assays, data was normalized to the maximal and minimal response observed in the presence of EC80 ligand and vehicle. The following EC80 concentrations were used: CNR1 cAMP: 0.0012 μM CP55940; CNR2 cAMP: 0.0048 μM CP55940. For Gi cAMP assays, the following forskolin concentration was used: CNR1 cAMP: 20 μM Forskolin; CNR2 cAMP: 25 μM Forskolin.

[2] = molecular target: T1, CB2 [CNR2]; experiment: PathHunter GPCR Biosensor cAMP assay, CNR2 agonist mode; conditions: Gi cAMP, 25 μM Forskolin
Experimental: as §1

[3] = molecular target: T2, CB1 [CNR1] (Homo sapiens, UniProt P21554); experiment: PathHunter GPCR Biosensor cAMP assay, CNR1 antagonist mode; conditions: for pIC50: Gi cAMP, 20 μM Forskolin, EC80 0.0012 μM CP55940; for CB1 vs CB2 selectivity and mode of action (in words): conclusion from Table 7
T2 sequence (P21554 whole entry): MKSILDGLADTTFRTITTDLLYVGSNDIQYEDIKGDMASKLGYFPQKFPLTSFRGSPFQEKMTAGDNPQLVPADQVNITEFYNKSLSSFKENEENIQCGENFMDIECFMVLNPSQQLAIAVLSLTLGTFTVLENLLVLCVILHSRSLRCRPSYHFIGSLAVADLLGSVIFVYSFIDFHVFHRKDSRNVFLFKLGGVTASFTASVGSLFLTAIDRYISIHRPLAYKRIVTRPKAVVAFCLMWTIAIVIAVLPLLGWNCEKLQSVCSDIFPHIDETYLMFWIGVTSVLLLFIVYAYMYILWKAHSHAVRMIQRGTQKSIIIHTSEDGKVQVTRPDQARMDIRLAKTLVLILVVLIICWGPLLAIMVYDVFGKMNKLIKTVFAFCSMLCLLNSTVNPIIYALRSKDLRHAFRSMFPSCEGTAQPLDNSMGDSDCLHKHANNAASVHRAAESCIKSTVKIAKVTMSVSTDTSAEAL
Experimental: as §1

[4] = molecular target: T2, CB1 [CNR1]; experiment: PathHunter GPCR Biosensor cAMP assay, CNR1 agonist mode; conditions: Gi cAMP, 20 μM Forskolin
Experimental: as §1

T1 sequence (P34972 whole entry): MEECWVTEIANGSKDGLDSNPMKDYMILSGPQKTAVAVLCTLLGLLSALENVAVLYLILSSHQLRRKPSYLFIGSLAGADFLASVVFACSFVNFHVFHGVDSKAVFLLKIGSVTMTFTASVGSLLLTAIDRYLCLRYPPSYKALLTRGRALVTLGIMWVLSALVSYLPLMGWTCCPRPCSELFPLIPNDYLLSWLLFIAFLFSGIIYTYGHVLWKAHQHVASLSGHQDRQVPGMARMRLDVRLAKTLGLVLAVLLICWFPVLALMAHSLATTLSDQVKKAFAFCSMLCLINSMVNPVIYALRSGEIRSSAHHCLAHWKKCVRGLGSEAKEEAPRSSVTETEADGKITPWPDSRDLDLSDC

pIC50 [1] | pEC50 [2] | pIC50 [3] | CB1 vs CB2 selectivity and mode of action (in words) [3] | pEC50 [4] | SMILES
< 6.00 | < 6.00 | 7.34 | selective CB1 antagonists | < 6.00 | CC(C)(CO)NC(=O)N1CC(OC(c2ccc(Cl)cc2)c2ccccc2C(F)(F)F)C1 (stereo not shown) [Compound 2, 3-((4-chlorophenyl)(2-(trifluoromethyl)phenyl)methoxy)-N-(1-hydroxy-2-methylpropan-2-yl)azetidine-1-carboxamide]
< 6.00 | < 6.00 | 6.42 | selective CB1 antagonists | < 6.00 | CC(C)(NC(=O)N1CC(OC(c2ccc(Cl)cc2)c2ccccc2C(F)(F)F)C1)C(=O)O (stereo not shown) [Compound 3, 2-(3-((4-chlorophenyl)(2-(trifluoromethyl)phenyl)methoxy)azetidine-1-carboxamido)-2-methylpropanoic acid]
